Values of other authors as cited in patent US11865207B2, “Topical pharmaceutical composition for treatment of anal fissures and hemorrhoids” (Ferring B.V., priority 2018, dated 2024).

Tested on: anal fissures
Details: 2% topical diltiazem in an ointment

In the case of `COc1ccc([C@@H]2Sc3ccccc3N(CCN(C)C)C(=O)[C@@H]2OC(C)=O)cc1` [diltiazem], the healing rate is given as 75%.
